# Reference: US10239832B2, “N-(1-hydroxy-3-(pyrrolidinyl)propan-2-yl)pyrrolidine-3-carboxamide derivatives as glucosylceramide synthase inhibitors” (BIOMARIN PHARMACEUTICAL INC., priority 2013, dated 2019)
# Target: T1, GCS (Canis lupus familiaris, UniProt A0A8I3MXG6)
# T1 construct: endogenous in cells; host or cells: MDCK (Madin-Darby canine kidney) cells, whole-cell lysate
# T1 sequence (A0A8I3MXG6 1-394): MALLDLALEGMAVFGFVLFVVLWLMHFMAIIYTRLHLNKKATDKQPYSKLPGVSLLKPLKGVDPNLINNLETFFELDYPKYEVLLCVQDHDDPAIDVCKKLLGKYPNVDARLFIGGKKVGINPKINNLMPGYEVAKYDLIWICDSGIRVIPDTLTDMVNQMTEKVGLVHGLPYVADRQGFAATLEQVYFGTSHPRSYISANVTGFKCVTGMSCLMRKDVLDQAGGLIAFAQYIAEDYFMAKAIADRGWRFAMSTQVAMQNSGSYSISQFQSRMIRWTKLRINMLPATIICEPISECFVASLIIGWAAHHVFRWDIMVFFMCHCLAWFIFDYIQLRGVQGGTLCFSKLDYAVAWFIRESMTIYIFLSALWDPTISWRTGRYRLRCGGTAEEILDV
# Experiment: GCS enzymatic assay (MDCK cell lysate, NBD-ceramide to glucosylceramide, LC/MS)
# Format: biochemical, canine
# Details: Table 2; class symbols A, B, C; the table does not say which of the assays; read-out: Data Range (IC50 values)
# Outline: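 IC50 or percent inhibition came from LC/MS/MS (ESI+, MRM) of NBD-ceramide and glucosylceramide, with tolbutamide as internal standard. The reaction used MDCK (canine) cell lysate as the enzyme source and was ended with acetonitrile. Mock wells received 0.1% DMSO.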
row,Compound,IC50 [nM]
1,"O=C(N[C@H](CN1CCCC1)[C@H](O)c1ccc(OC2CC2)c(Cl)c1)C1CCN(c2ccc(Cl)cc2)C1 (stereo in doubt) [Compound 3, (S)-N-((1R,2R)-1-(3-chloro-4-cyclopropoxyphenyl)-1-hydroxy-3-(pyrrolidin-1-yl)propan-2-yl)-1-(4-chlorophenyl)pyrrolidine-3-carboxamide]",1 to 30
2,"O=C(N[C@H](CN1CCC1)[C@H](O)c1ccc2c(c1)OCCO2)[C@@H]1CCN(c2ccc(Cl)cc2)C1 [Compound 78, (R)-N-((1R,2R)-3-(azetidin-1-yl)-1-(2,3-dihydrobenzo[b][1,4]dioxin-6-yl)-1-hydroxypropan-2-yl)-1-(4-chlorophenyl)pyrrolidine-3-carboxamide]",1 to 30
3,"N#Cc1ccc(N2CC[C@@H](C(=O)N[C@H](CN3CCCC3)[C@H](O)c3ccc(OC4CC4)c(Cl)c3)C2)cc1 [Compound 152, (R)-N-((1R,2R)-1-(3-chloro-4-cyclopropoxyphenyl)-1-hydroxy-3-(pyrrolidin-1-yl)propan-2-yl)-1-(4-cyanophenyl)pyrrolidine-3-carboxamide]",100 to 1000
4,"O=C(N[C@H](CN1CCCC1)[C@H](O)c1ccc(OC2CC2)c(Cl)c1)[C@@H]1CCN(c2ccc3ccsc3c2)C1 [Compound 91, (R)-1-(benzo[b]thiophen-6-yl)-N-((1R,2R)-1-(3-chloro-4-cyclopropoxyphenyl)-1-hydroxy-3-(pyrrolidin-1-yl)propan-2-yl)pyrrolidine-3-carboxamide]",1 to 30
5,"O=C(N[C@H](CN1CCCC1)[C@H](O)c1cc(F)c2c(c1)OCCO2)[C@@H]1CCN(c2ccccn2)C1 [Compound 48, (R)-N-((1R,2R)-1-(8-fluoro-2,3-dihydrobenzo[b][1,4]dioxin-6-yl)-1-hydroxy-3-(pyrrolidin-1-yl)propan-2-yl)-1-(pyridin-2-yl)pyrrolidine-3-carboxamide]",1 to 30
6,"O=C(N[C@H](CN1CCCC1)[C@H](O)c1cc(F)c2c(c1)OCCO2)[C@@H]1CCN(c2ccc(F)cc2)C1 [Compound 35, (R)-N-((1R,2R)-1-(8-fluoro-2,3-dihydrobenzo[b][1,4]dioxin-6-yl)-1-hydroxy-3-(pyrrolidin-1-yl)propan-2-yl)-1-(4-fluorophenyl)pyrrolidine-3-carboxamide]",1 to 30
7,"O=C(N[C@H](CN1CCCC1)[C@H](O)c1ccc(OC2CCOCC2)c(Cl)c1)[C@@H]1CCN(c2ccc3cc(F)ccc3c2)C1 [Compound 50, (R)-N-((1R,2R)-1-(3-chloro-4-((tetrahydro-2H-pyran-4-yl)oxy)phenyl)-1-hydroxy-3-(pyrrolidin-1-yl)propan-2-yl)-1-(6-fluoronaphthalen-2-yl)pyrrolidine-3-carboxamide]",1 to 30
8,"O=C(N[C@H](CN1CCCC1)[C@H](O)c1cc(F)c2c(c1)OCCO2)[C@H]1CCN(c2ccc(F)cc2)C1 [Compound 35A, (S)-N-((1R,2R)-1-(8-fluoro-2,3-dihydrobenzo[b][1,4]dioxin-6-yl)-1-hydroxy-3-(pyrrolidin-1-yl)propan-2-yl)-1-(4-fluorophenyl)pyrrolidine-3-carboxamide]",1 to 30
9,"O=C(N[C@H](CN1CCCC1)[C@H](O)c1ccc(OC2CC2)c(Cl)c1)[C@@H]1CCN(c2ccc(Cl)c(OC3CCCCC3)c2)C1 [Compound 136, (R)-1-(4-chloro-3-(cyclohexyloxy)phenyl)-N-((1R,2R)-1-(3-chloro-4-cyclopropoxyphenyl)-1-hydroxy-3-(pyrrolidin-1-yl)propan-2-yl)pyrrolidine-3-carboxamide]",1 to 30
10,"O=C(N[C@H](CN1CCCC1)[C@H](O)c1ccc(OC2CC2)cc1)[C@@H]1CCN(c2ccccc2)C1 [Compound 149, (R)-N-((1R,2R)-1-(4-cyclopropoxyphenyl)-1-hydroxy-3-(pyrrolidin-1-yl)propan-2-yl)-1-phenylpyrrolidine-3-carboxamide]",1 to 30
11,"O=C(N[C@H](CN1CCCC1)[C@H](O)c1ccc(OCCN2CCC2)c(Cl)c1)[C@@H]1CCN(c2ccc(Cl)cc2)C1 [Compound 60, (R)-N-((1R,2R)-1-(4-(2-(azetidin-1-yl)ethoxy)-3-chlorophenyl)-1-hydroxy-3-(pyrrolidin-1-yl)propan-2-yl)-1-(4-chlorophenyl)pyrrolidine-3-carboxamide]",1 to 30
12,"CC(C)Oc1ccc([C@@H](O)[C@@H](CN2CCCC2)NC(=O)[C@@H]2CCN(c3ccc(F)cc3)C2)cn1 [Compound 31, (R)-1-(4-fluorophenyl)-N-((1R,2R)-1-hydroxy-1-(6-isopropoxypyridin-3-yl)-3-(pyrrolidin-1-yl)propan-2-yl)pyrrolidine-3-carboxamide]",100 to 1000
13,"O=C(N[C@H](CN1CCC1)[C@H](O)c1ccc(OC2CC2)c(Cl)c1)[C@@H]1CCN(c2ccc(Cl)cc2)C1 [Compound 73, (R)-N-((1R,2R)-3-(azetidin-1-yl)-1-(3-chloro-4-cyclopropoxyphenyl)-1-hydroxypropan-2-yl)-1-(4-chlorophenyl)pyrrolidine-3-carboxamide]",1 to 30

# Same assay, conditions: Table 2; class symbols D, E, F, NA (not active); the table does not say which of the assays
row,Compound,Data Range (% inhibition)
1,"O=C(N[C@H](CN1CCCC1)[C@H](O)c1ccc2c(c1)OCCO2)C1CCN(c2ccc3cc(F)ccc3c2)C1 (stereo in doubt) [Compound 14D, (R)-N-((1R,2R)-1-(2,3-dihydrobenzo[b][1,4]dioxin-6-yl)-1-hydroxy-3-(pyrrolidin-1-yl)propan-2-yl)-1-(6-fluoronaphthalen-2-yl)pyrrolidine-3-carboxamide]",F (1-49% (or less than 50%))
2,"O=C(N[C@H](CN1CCCCC1)[C@H](O)c1cc(F)c2c(c1)OCCO2)[C@H]1CCN(c2ccc(Cl)cc2)C1 [Compound 44C, (S)-1-(4-chlorophenyl)-N-((1R,2R)-1-(8-fluoro-2,3-dihydrobenzo[b][1,4]dioxin-6-yl)-1-hydroxy-3-(piperidin-1-yl)propan-2-yl)pyrrolidine-3-carboxamide]",NA (not active—a negative value was generated for % inhibition)
3,"O=C(N[C@H](CN1CCCC1)[C@H](O)c1ccc(OC2CC2)c(Cl)c1)[C@@H]1CCN(C(=O)c2ccccc2)C1 [Compound 129, (R)-1-benzoyl-N-((1R,2R)-1-(3-chloro-4-cyclopropoxyphenyl)-1-hydroxy-3-(pyrrolidin-1-yl)propan-2-yl)pyrrolidine-3-carboxamide]",F (1-49% (or less than 50%))
4,"Cn1ncc2cc(N3CC[C@@H](C(=O)N[C@H](CN4CCCC4)[C@H](O)c4cc(F)c5c(c4)OCCO5)C3)ccc21 [Compound 125, (R)-N-((1R,2R)-1-(8-fluoro-2,3-dihydrobenzo[b][1,4]dioxin-6-yl)-1-hydroxy-3-(pyrrolidin-1-yl)propan-2-yl)-1-(1-methyl-1H-indazol-5-yl)pyrrolidine-3-carboxamide]",E (50-74% (or less than 75%))
5,"O=C(N[C@H](CN1CCCC1)[C@H](O)c1cc(F)c2c(c1)OCCO2)[C@H]1CCN(c2ccccn2)C1 [Compound 48A, (S)-N-((1R,2R)-1-(8-fluoro-2,3-dihydrobenzo[b][1,4]dioxin-6-yl)-1-hydroxy-3-(pyrrolidin-1-yl)propan-2-yl)-1-(pyridin-2-yl)pyrrolidine-3-carboxamide]",F (1-49% (or less than 50%))
6,"O=C(N[C@H](CN1CCCC1)[C@H](O)c1ccc2c(c1)OCCO2)[C@@H]1CCN(Cc2ccc(Cl)cc2)C1 [Compound 15, (R)-1-(4-chlorobenzyl)-N-((1R,2R)-1-(2,3-dihydrobenzo[b][1,4]dioxin-6-yl)-1-hydroxy-3-(pyrrolidin-1-yl)propan-2-yl)pyrrolidine-3-carboxamide]",F (1-49% (or less than 50%))
7,"O=C(N[C@H](CN1CCCC1)[C@H](O)c1cc(F)c2c(c1)OCCO2)[C@H]1CCN(c2ccc(Cl)cc2)C1 [Compound 2B, (S)-1-(4-chlorophenyl)-N-((1R,2R)-1-(8-fluoro-2,3-dihydrobenzo[b][1,4]dioxin-6-yl)-1-hydroxy-3-(pyrrolidin-1-yl)propan-2-yl)pyrrolidine-3-carboxamide]",F (1-49% (or less than 50%))
8,"O=C(N[C@H](CN1CCCC1)[C@H](O)c1ccc2c(c1)OCCO2)[C@H]1CCN(Cc2ccc(Cl)cc2)C1 [Compound 15D, (S)-1-(4-chlorobenzyl)-N-((1R,2R)-1-(2,3-dihydrobenzo[b][1,4]dioxin-6-yl)-1-hydroxy-3-(pyrrolidin-1-yl)propan-2-yl)pyrrolidine-3-carboxamide]",F (1-49% (or less than 50%))
9,"O=C(N[C@H](CN1CCCC1)[C@H](O)c1ccc2c(c1)OCCO2)[C@@H]1CCN(c2ccc3nccnc3c2)C1 [Compound 83, (R)-N-((1R,2R)-1-(2,3-dihydrobenzo[b][1,4]dioxin-6-yl)-1-hydroxy-3-(pyrrolidin-1-yl)propan-2-yl)-1-(quinoxalin-6-yl)pyrrolidine-3-carboxamide]",F (1-49% (or less than 50%))
10,"O=C(N[C@H](CN1CCCC1)[C@H](O)c1ccc(OC2CC2)c(Cl)c1)[C@H]1CCN(c2ccccn2)C1 [Compound 54A, (S)-N-((1R,2R)-1-(3-chloro-4-cyclopropoxyphenyl)-1-hydroxy-3-(pyrrolidin-1-yl)propan-2-yl)-1-(pyridin-2-yl)pyrrolidine-3-carboxamide]",F (1-49% (or less than 50%))
